Laboratory results as given in patent publication US12655126B2, “Imidazole-pyrazole derivatives as antibacterials” (Hoffmann-La Roche Inc., priority 2020, dated 2026).
Counter-ions that a name gives are not always drawn.

Each compound was assayed on Acinetobacter baumannii ATCC17961 (assay: Antimicrobial susceptibility testing: 90% growth inhibitory concentration (IC90) determination). Conditions: Acinetobacter baumannii ATCC17961; Iso-Sensitest broth; growth by OD 600 nm over 16 h; 90% growth inhibitory concentration; read-out: ATCC 17961 IC90.
Format: cell-based
Description: Antimicrobial Susceptibility Testing:
90% Growth Inhibitory Concentration (IC90) Determination
The in vitro antimicrobial activity of the compounds was determined according to the following procedure:
The assay used a 10-points Iso-Sensitest broth medium to measure quantitatively the in vitro activity of the compounds against Acinetobacter baumannii ATCC17961.
Stock compounds in DMSO were serially twofold diluted (e.g. range from 50 to 0.097 μM final concentration) in 384 wells microtiter plates and inoculated with 49 μl the bacterial suspension in Iso-Sensitest medium to have a final cell concentration of ˜5×10^(5) CFU/ml in a final volume/well of 50 ul/well. Microtiter plates were incubated at 35±2° C.
Bacterial cell growth was determined with the measurement of optical density at λ=600 nm each minutes over a time course of 16 h. Growth inhibition was calculated during the logarithmic growth of the bacterial cells with determination of the concentration inhibiting 50% (IC50) and 90% (IC90) of the growth.
Table 1 provides the 90% growth inhibitory concentrations (IC90) in micromoles per liter of the compounds of present invention obtained against the strain Acinetobacter baumannii ATCC17961.

Row | IC90 [nM] | Structure (SMILES)
1 | 250 | Cc1ccc(-n2cc(-c3cnc(C(=O)Nc4ccc(C(=O)N5CCN(C(=O)C6CC[N+](C)(C)CC6)CC5)c(Cl)c4)n3C)c(C(F)(F)F)n2)nc1 [Example A4, N-[3-chloro-4-[4-(1,1-dimethylpiperidin-1-ium-4-carbonyl)piperazine-1-carbonyl]phenyl]-1-methyl-5-[1-(5-methyl-2-pyridyl)-3-(trifluoromethyl)pyrazol-4-yl]imidazole-2-carboxamide; formate]
2 | 230 | Cn1c(-c2cn(-c3ccc(N)cn3)nc2C(F)(F)F)cnc1C(=O)Nc1ccc(C(=O)N2CCN(C(=O)[C@H]3CC[N+](C)(C)C[C@@H]3O)CC2)c(Cl)c1 (stereo in doubt) [Example D8, 5-[1-(5-amino-2-pyridyl)-3-(trifluoromethyl)pyrazol-4-yl]-N-[3-chloro-4-[4-[(3R,4S)-3-hydroxy-1,1-dimethyl-piperidin-1-ium-4-carbonyl]piperazine-1-carbonyl]phenyl]-1-methyl-imidazole-2-carboxamide; formate]
3 | 390 | Cn1c(-c2cn(-c3ccc(CO)cn3)nc2C(F)(F)F)cnc1C(=O)Nc1ccc(C(=O)N2CCN(C(=O)C3CC[N+](C)(C)CC3)CC2)c(Cl)c1 [Example F1, N-[3-Chloro-4-[4-(1,1-dimethylpiperidin-1-ium-4-carbonyl)piperazine-1-carbonyl]phenyl]-5-[1-[5-(hydroxymethyl)-2-pyridyl]-3-(trifluoromethyl)pyrazol-4-yl]-1-methyl-imidazole-2-carboxamide; formate]
4 | 290 | Cc1cc(-n2cc(-c3cnc(C(=O)Nc4ccc(C(=O)N5CCN(C(=O)C6CC[N+](C)(C)CC6)CC5)c(Cl)c4)n3C)c(C(F)(F)F)n2)ncc1N [Example A9, 5-[1-(5-amino-4-methyl-2-pyridyl)-3-(trifluoromethyl)pyrazol-4-yl]-N-[3-chloro-4-[4-(1,1-dimethylpiperidin-1-ium-4-carbonyl)piperazine-1-carbonyl]phenyl]-1-methyl-imidazole-2-carboxamide]
5 | 270 | Cn1c(-c2cn(-c3cc(Cl)c(N)cn3)nc2C(F)(F)F)cnc1C(=O)Nc1ccc(C(=O)N2CCN(C(=O)C3CC[N+](C)(C)CC3)CC2)c(Cl)c1 [Example A12, 5-[1-(5-amino-4-chloro-2-pyridyl)-3-(trifluoromethyl)pyrazol-4-yl]-N-[3-chloro-4-[4-(1,1-dimethylpiperidin-1-ium-4-carbonyl)piperazine-1-carbonyl]phenyl]-1-methyl-imidazole-2-carboxamide]
6 | 980 | Cn1c(-c2cn(-c3ccc(C(N)=O)cn3)nc2C(F)(F)F)cnc1C(=O)Nc1ccc(C(=O)N2CCN(C(=O)C3CC[N+](C)(C)CC3)CC2)c(Cl)c1 [Example A2, 6-[4-[2-[[3-chloro-4-[4-(1,1-dimethylpiperidin-1-ium-4-carbonyl)piperazine-1-carbonyl]phenyl]carbamoyl]-3-methyl-imidazol-4-yl]-3-(trifluoromethyl)pyrazol-1-yl]pyridine-3-carboxamide; formate]
7 | 240 | Cn1c(-c2cn(-c3ccc(N)cn3)nc2C(F)(F)F)cnc1C(=O)Nc1ccc(C(=O)N2CCN(C(=O)[C@@H]3CC[N+](C)(C)C[C@@H]3O)CC2)c(Cl)c1 (stereo in doubt) [Example D5, 5-[1-(5-amino-2-pyridyl)-3-(trifluoromethyl)pyrazol-4-yl]-N-[3-chloro-4-[4-[(3R,4R)-3-hydroxy-1,1-dimethyl-piperidin-1-ium-4-carbonyl]piperazine-1-carbonyl]phenyl]-1-methyl-imidazole-2-carboxamide; formate]
8 | 820 | CNC(=O)c1ccc(-n2cc(-c3cnc(C(=O)Nc4ccc(C(=O)N5CCN(C(=O)C6CC[N+](C)(C)CC6)CC5)c(Cl)c4)n3C)c(C(F)(F)F)n2)nc1 [Example A3, 6-[4-[2-[[3-chloro-4-[4-(1,1-dimethylpiperidin-1-ium-4-carbonyl)piperazine-1-carbonyl]phenyl]carbamoyl]-3-methyl-imidazol-4-yl]-3-(trifluoromethyl)pyrazol-1-yl]-N-methyl-pyridine-3-carboxamide; formate]
9 | 220 | CNc1ccc(-n2cc(-c3cnc(C(=O)Nc4ccc(C(=O)N5CCN(C(=O)C[N+]6(C)CCC(O)C6)CC5)c(Cl)c4)n3C)c(C(F)(F)F)n2)nc1 (centres unmarked) [Example E5, N-[3-chloro-4-[4-[2-(3-hydroxy-1-methyl-pyrrolidin-1-ium-1-yl)acetyl]piperazine-1-carbonyl]phenyl]-1-methyl-5-[1-[5-(methylamino)-2-pyridyl]-3-(trifluoromethyl)pyrazol-4-yl]imidazole-2-carboxamide; formate]
10 | 760 | Cn1c(-c2cn(-c3ccc(N)cn3)nc2C(F)F)cnc1C(=O)Nc1ccc(C(=O)N2CCN(C(=O)C3CC[N+](C)(C)CC3)CC2)c(Cl)c1 [Example A5, 5-[1-(5-amino-2-pyridyl)-3-(difluoromethyl)pyrazol-4-yl]-N-[3-chloro-4-[4-(1,1-dimethylpiperidin-1-ium-4-carbonyl)piperazine-1-carbonyl]phenyl]-1-methyl-imidazole-2-carboxamide; 2,2,2-trifluoroacetate]
11 | 420 | Cn1c(-c2cn(-c3ccc(N)cn3)nc2C(F)(F)F)cnc1C(=O)Nc1ccc(C(=O)N2CCN(C(=O)[C@@H]3COCC[N+]3(C)C)CC2)c(Cl)c1 [Example D13, 5-[1-(5-amino-2-pyridyl)-3-(trifluoromethyl)pyrazol-4-yl]-N-[3-chloro-4-[4-[(3S)-4,4-dimethylmorpholin-4-ium-3-carbonyl]piperazine-1-carbonyl]phenyl]-1-methyl-imidazole-2-carboxamide; formate]
12 | 550 | Cn1c(-c2cn(-c3ccc(N)cn3)nc2C(F)(F)F)cnc1C(=O)Nc1ccc(C(=O)N2CCN(C(=O)[C@@H]3[C@@H](Oc4ccc(N)cn4)CC[N+]3(C)C)CC2)c(Cl)c1 [Example D14, N-[4-[4-[(2S,3S)-3-[(5-amino-2-pyridyl)oxy]-1,1-dimethyl-pyrrolidin-1-ium-2-carbonyl]piperazine-1-carbonyl]-3-chloro-phenyl]-5-[1-(5-amino-2-pyridyl)-3-(trifluoromethyl)pyrazol-4-yl]-1-methyl-imidazole-2-carboxamide; formate]

Same assay, conditions: Acinetobacter baumannii, ATCC17961, 16 h, read-out: ATCC 17961 IC90

Row | Structure (SMILES) | IC90 [nM]
13 | COc1ccc(-n2cc(-c3cnc(C(=O)Nc4ccc(C(=O)N5CCN(C(=O)C6CC[N+](C)(C)CC6)CC5)c(Cl)c4)n3C)c(C(F)(F)F)n2)nc1 [Example A1, N-[3-Chloro-4-[4-(1,1-dimethylpiperidin-1-ium-4-carbonyl)piperazine-1-carbonyl]phenyl]-5-[1-(5-methoxy-2-pyridyl)-3-(trifluoromethyl)pyrazol-4-yl]-1-methyl-imidazole-2-carboxamide; formate] | 95
14 | Cn1c(-c2cn(-c3ncccn3)nc2C(F)(F)F)cnc1C(=O)Nc1ccc(C(=O)N2CCN(C(=O)C3CC[N+](C)(C)CC3)CC2)c(Cl)c1 [Example B1, N-[3-Chloro-4-[4-(1,1-dimethylpiperidin-1-ium-4-carbonyl)piperazine-1-carbonyl]phenyl]-1-methyl-5-[1-pyrimidin-2-yl-3-(trifluoromethyl)pyrazol-4-yl]imidazole-2-carboxamide; formate] | 940
